Laboratory results reported in patent publication US20130324513A1, “METHOD FOR TREATING ESOPHAGEAL CANCER” (Niiki Pharma Acquisition Corp. 2, priority 2010, published 2013).
Like-named read-outs stand apart in the source and are kept apart here.

Tests used:
[1] = system: human esophageal carcinoma cell line OE33; assay: MTT Cell Proliferation Assay in OE33; type: cell-based
Procedure: To test the activity of tris(8-quinolinolato)gallium(III), ATCC's MTT Cell Proliferation Assay® was performed using human esophageal carcinoma cell line OE33. Stock cultures were allowed to grow to 70-80% confluence for this study. The anti-proliferative activity of tris(8-quinolinolato)gallium(III) against the indicated cell line was evaluated in vitro using the ATCC's MTT Cell Proliferation Assay (Catalog No. 30-1010K). OE33 plates were seeded with 1,200 cells/well, and the cells were grown in RPMI1640 medium containing 1% (1M HEPES), 1% sodium pyruvate, 10% FBS and 1% penicillin/strep/glutamine. Cultures were maintained in a 37° C. humidified 5% CO2/95% air atmosphere. The cells were treated with tris(8-quinolinolato)gallium(III) at 1,000 μM, or a series of 4×dilutions thereof (250 μM, 62.5 μM, etc.). […] The plates were left overnight at room temperature in the dark and was read on a plate reader using SoftMax® Pro (version 5.2, Molecular Devices).
The absorbance data was analyzed as follows: Absorbance values were converted to Percent of Control and plotted against test agent concentrations for IC50 calculations using SoftMax® Pro (version 5.2, Molecular Devices). […] Percent of Control values were calculated by dividing the absorbance values for each test well by the No Drug Control average (column 11 values; cells+vehicle control) and multiplying by 100. […]

[2] = system: human gastric cancer cell line NCI-N87; assay: MTT Cell Proliferation Assay in NCI-N87; type: cell-based
Procedure: To test the activities of tris(8-quinolinolato)gallium(III), ATCC's MTT Cell Proliferation Assay® was performed using human gastric cancer cell line NCI-N87 (differentiated carcinoma). Stock cultures were allowed to grow to 70-80% confluence for this study. The anti-proliferative activity of tris(8-quinolinolato)gallium(III), against the indicated cell line was evaluated in vitro using the ATCC's MTT Cell Proliferation Assay (Catalog No. 30-1010K). NCI-N87 was grown using RPMI1640 (Cell Gro 10-040-CV), with 1% of 1M HEPES, 1% sodium pyruvate, 1% of 45% glucose solution, 10% of heat-inactivated FBS and 1% of pen/strep/glutamine. NCI-N87 cell plates were seeded with 20E+03 cells/well and treated with tris(8-quinolinolato)gallium(III) at 1,000 μM, or a series of 4×dilutions thereof (250 μM, 62.5 μM, etc.). 100 μl of medium was removed from each well at 72 hours post-treatment and 10 μl MTT reagent was added to each well. The plates were incubated plate at 37° C. for 4 hours and then 100 μl of detergent was added. The plates were left overnight at room temperature in the dark and was read on a plate reader using SoftMax® Pro (version 5.2, Molecular Devices).
The absorbance data was analyzed as follows: Absorbance values were converted to Percent of Control and plotted against test agent concentrations for IC50 calculations using SoftMax® Pro (version 5.2, Molecular Devices). The plate blank signal average was subtracted from all wells prior to calculating the Percent of Control. Percent of Control values were calculated by dividing the absorbance values for each test well by the No Drug Control average (column 11 values; cells+vehicle control) and multiplying by 100. Plots of Compound Concentration versus Percent of Control were analyzed using the 4-parameter equation to obtain IC50 values and other parameters that describe the sigmoidal dose response curve.
The IC50 value for the test agents was estimated by curve-fitting the data using the following four parameter-logistic equation:
wherein “Top” is the maximal % of control absorbance (100%) (Value “A” in FIG. 1, 88.3), “Bottom” is the minimal % of control absorbance at the highest agent concentration (down to zero) (Value “D” in FIG. 1, 20.8), Y is the Percent of Control absorbance, X is the test agent Concentration, IC50 is the concentration of agent that inhibits cell growth by 50% compared to the control cells (Value “C” in FIG. 1, 8.42e+03), n is the slope of the curve (Value “B” in FIG. 1, 2.31).

[3] = NCI-N87, four parameter-logistic fit

[Ga+3].[O-]c1cccc2cccnc12.[O-]c1cccc2cccnc12.[O-]c1cccc2cccnc12 [tris(8-quinolinolato)gallium(III)]
growth inhibition in MTT assay (FIG. 2) ([1]; OE33): dose-dependent growth inhibition
IC50 ([1]; OE33 cell line, MTT, 72 hours post-treatment, read-out: IC50 (concentration of agent that inhibits cell growth by 50% compared to the control cells)): 3.06 µM
growth inhibition in MTT assay (FIG. 1) ([2]; NCI-N87): dose-dependent growth inhibition
Bottom, minimal % of control absorbance at the highest agent concentration (Value "D" in FIG. 1) [2, 3]: 20.8 % of control
Top, maximal % of control absorbance (Value "A" in FIG. 1) [2, 3]: 88.3 % of control
IC50 ([2]; NCI-N87, four parameter-logistic fit, X axis of FIG. 1 in nM, read-out: IC50 (Value "C" in FIG. 1)): 8420 nM
IC50 ([2]; NCI-N87 cell line, MTT, 72 hours post-treatment, read-out: IC50 (concentration of agent that inhibits cell growth by 50% compared to the control cells)): 8420 nM
